From patent US8053435B2, “Naphthalenyloxypropenyl derivatives having inhibitory activity against histone deacetylase and pharmaceutical composition comprising the same” (Korea Research Institute of Chemical Technology, priority 2006, dated 2011)
Like-named read-outs stand apart in the source and are kept apart here.

Key:
[1] = test system: colon cancer cells HCT116; assay: Inhibitory activity against proliferation of cancer cells, SRB (Sulforhodamine B) analysis; assay type: cell-based; conditions: Homo sapiens, read-out: Inhibitory conc. against cancer cell growth (EC50 μM) HCT116
Protocol: Cancer cells were inoculated into a 96-well microplate at a concentration of 1×10^3˜3×10^3 cells/well and incubated under the condition of 37° C., 5% CO2 for 24 hrs. After the incubation was completed, 0.2, 1, 5, 25, or 100 μM of each of the compounds of Examples was added to the plate, and then the reactant was incubated for 48 hrs. After the substrate was stained with SRB, the anti-cancer activity was determined by comparing the amount of protein in the cells treated with the compound of Examples with that of protein in untreated cells.
Specifically, after the incubation was completed, the culture medium was removed from each well, and the cells were washed 3 times with PBS (pH 7.4). Then, a solution of 50% trichloroacetic acid (TCA) was added to each well in an amount of 50 μl/well at 4° C. for 1 hr to fix them. Then, the microplate was washed 5 times with distilled water and dried in air. […]
50 μl of a staining solution prepared by dissolving 0.4% SRB in 1% acetic acid was added to the wells, and the microplate was kept at room temperature for 1 hr. The well plate was then washed 5 times with 1% acetic acid to remove unbound SRB and dried in air. The stained cells were treated with 150 μl/well of 10 mM Tris-HCl solution (pH 10.5) to elute SRB from the cells, and the absorbance of the cells treated with the compounds of examples at 540 nm was measured, based on the absorbance of an untreated cell. The EC50 value representing inhibition of the cancer cell growth by the extent of 50% was calculated from the measured absorbance, and the results are shown in Table 6.

[2] = test system: HDAC; assay: Inhibitory activity against HDAC (BIOMOL Quantizyme Assay system, Fluor de Lys substrate); assay type: biochemical; conditions: HeLa nuclear extract as source of HDAC enzymes, enzyme reaction 1 hr, read-out: IC50 (HDAC inhibitory concentration)
Protocol: HDAC activity was analyzed using BIOMOL Quantizyme™ Assay system which comprised two steps of 1) enzyme reaction between HDAC and a substrate and 2) determination of the level of HDAC inhibitory activity.
(§1) 0.5 μl of HeLa nuclear organic layer (10 μM) (a source of HDAC enzymes) was then added thereto to a final concentration of 100 nM. The enzyme reaction was carried out for 1 hr.
Subsequently, in step 2), 2 μM tricostatin A was added to 50 μl of Flour de Lys™ developer, followed by allowing the mixture to react at room temperature for 15 minutes. The light excited at 355 nm and emitted at 460 nm from the fluorophore was measured with a fluorometric plate reader. The intensity of the fluorescence increases as the enzyme activity is higher. The HDAC inhibitory activity of each of the test compounds was determined and compared with that of the control.
0.5 μl of HeLa nuclear organic layer (10 μM) (a source of HDAC enzymes) was then added thereto to a final concentration of 100 nM, The enzyme reaction was carried out for 1 hr.
as §1, §1

[3] = HCT-116, Table 2, 48 hrs incubation with compound
[4] = HCT-116, Table 4, 48 hrs incubation with compound

| Molecule | EC50 [1, 3] [µM] | IC50 ([2]; Table 1, formula (1) series) [nM] | EC50 [1, 4] [µM] | IC50 ([2]; Table 3, formula (2) series) [nM] |
| --- | --- | --- | --- | --- |
| CN1CCC(NC(=O)/C(=C/c2ccc(C(=O)NO)cc2)COc2cccc3ccccc23)CC1 [Example 1-1, (E)-4-(3-(1-Methylpiperidin-4-ylamino)-2-((naphthalen-1-yloxy)methyl)-3-oxoprop-1-enyl)-N-hydroxybenzamide] | 0.54 | 6 |  |  |
| CN(C)CC(C)(C)CNC(=O)/C(=C/c1ccc(C(=O)NO)cc1)COc1cccc2ccccc12 [Example 1-4] | 0.5 | 14 |  |  |
| COCC(C)NC(=O)/C(=C/c1ccc(C(=O)NO)cc1)COc1cccc2ccccc12 (stereo not drawn) [Example 1-6, (E)-4-(3-(1-Methoxypropan-2-ylamino)-2-((naphthalen-1-yloxy)methyl)-3-oxoprop-1-enyl)-N-hydroxybenzamide] | 0.63 | 23 |  |  |
| COc1ccc(CNC(=O)/C(=C/c2ccc(C(=O)NO)cc2)COc2cccc3ccccc23)cc1 [Example 1-7, (E)-4-(3-(4-Methoxybenzylamino)-2-((naphthalen-1-yloxy)methyl)-3-oxoprop-1-enyl)-N-hydroxybenzamide] | 0.7 | 10 |  |  |
| O=C(NCc1ccco1)/C(=C/c1ccc(C(=O)NO)cc1)COc1cccc2ccccc12 [Example 1-12, (E)-4-(3-(Furan-2-ylmethylamino)-2-((naphthalen-1-yloxy)methyl)-3-oxoprop-1-enyl)-N-hydroxybenzamide] | 0.6 | 7 |  |  |
| CN(C)c1ccc(CNC(=O)/C(=C/c2ccc(C(=O)NO)cc2)COc2cccc3ccccc23)cc1 [Example 1-13, (E)-4-(3-(4-(Dimethylamino)benzylamino)-2-((naphthalen-1-yloxy)methyl)-3-oxoprop-1-enyl)-N-hydroxybenzamide] | 0.8 | 20 |  |  |
| CCN1CCC(NC(=O)/C(=C/c2ccc(C(=O)NO)cc2)COc2cccc3ccccc23)CC1 [Example 1-17, (E)-4-(3-(1-Ethylpiperidin-4-ylamino)-2-((naphthalen-1-yloxy)methyl)-3-oxoprop-1-enyl)-N-hydroxybenzamide] | 0.5 | 8 |  |  |
| CN1CCCC1CCNC(=O)/C(=C/c1ccc(C(=O)NO)cc1)COc1cccc2ccccc12 (stereo not drawn) [Example 1-22, (E)-4-(3-(2-(1-Methylpyrrolidin-2-yl)ethylamino)-2-((naphthalen-1-yloxy)methyl)-3-oxo-1-propenyl)-N-hydroxy-benzamide] | 0.8 | 13 |  |  |
| CC(C)N1CCC(NC(=O)/C(=C/c2ccc(C(=O)NO)cc2)COc2cccc3ccccc23)CC1 [Example 1-23, (E)-4-(3-(1-Isopropylpiperidin-4-ylamino)-2-((naphthalen-1-yloxy)methyl)-3-oxoprop-1-enyl)-N-hydroxybenzamide] | 0.7 |  |  |  |
| COc1ccc(CNC(=O)/C(=C/CCCCC(=O)NO)COc2cccc3ccccc23)cc1 [Example 2-6, (E)-N8-Hydroxy-N1-(4-methoxybenzyl)-2-((naphthalen-1-yloxy)methyl)-2-octenediamide] |  |  | 0.8 | 5 |
| O=C(CCCCC=C(COc1cccc2ccccc12)C(=O)NCC1CCCO1)NO (stereo not drawn) [Example 2-8, (E)-N8-Hydroxy-2-((naphthalen-1-yloxy)methyl)-N1-(tetrahydrofuran-2-yl)methyl)-2-octenediamide] |  |  | 0.7 | 14 |
| O=C(CCCC/C=C(\COc1cccc2ccccc12)C(=O)NCc1ccco1)NO [Example 2-11, (E)-N1-(Furan-2-ylmethyl)-N8-hydroxy-2-((naphthalen-1-yloxy)methyl)-2-octenediamide] |  |  | 0.6 | 6 |
| CN(C)c1ccc(CNC(=O)/C(=C/CCCCC(=O)NO)COc2cccc3ccccc23)cc1 [Example 2-12, (E)-N1-(4-(Dimethylamino)benzyl)-N8-hydroxy-2-((naphthalen-1-yloxy)methyl)-2-octenediamide] |  |  | 0.5 | 6 |
| COCCNC(=O)/C(=C/CCCCC(=O)NO)COc1cccc2ccccc12 [Example 2-13, (E)-N8-Hydroxy-N1-(2-methoxyethyl)-2-((naphthalen-1-yloxy)methyl)-2-octenediamide] |  |  | 0.6 | 24 |
| O=C(CCCC/C=C(\COc1cccc2ccccc12)C(=O)NC1CCCCC1)NO [Example 2-14, (E)-N1-Cyclohexyl-N8-hydroxy-2-((naphthalen-1-yloxy)methyl)-2-octenediamide] |  |  | 0.8 |  |
| O=C(CCCC/C=C(\COc1cccc2ccccc12)C(=O)NCc1cccs1)NO [Example 2-15, (E)-N8-Hydroxy-2-((naphthalen-1-yloxy)methyl)-N1-(thiophen-2-ylmethyl)-2-octenediamide] |  |  | 0.4 | 8 |
| COc1ccc(CCNC(=O)/C(=C/CCCCC(=O)NO)COc2cccc3ccccc23)cc1 [Example 2-16, (E)-N8-Hydroxy-N1-(4-methoxyphenethyl)-2-((naphthalen-1-yloxy)methyl)-2-octenediamide] |  |  | 0.7 | 17 |
| O=C(CCCC/C=C(\COc1cccc2ccccc12)C(=O)NC1CCN(C2CCCC2)CC1)NO [Example 2-19, (E)-N1-(1-Cyclopentylpiperidin-4-yl)-N8-hydroxy-2-((naphthalen-1-yloxy)methyl)-2-octenediamide] |  |  | 0.8 | 13 |
| O=C(CCCC/C=C(\COc1cccc2ccccc12)C(=O)NC1CCN(Cc2ccccc2)C1)NO (stereo not drawn) [Example 2-20, (E)-N1-(1-Benzylpyrrolidin-3-yl)-N8-hydroxy-2-((naphthalen-1-yloxy)methyl)-2-octenediamide] |  |  | 0.9 | 7 |
| CC(C)N1CCC(NC(=O)/C(=C/CCCCC(=O)NO)COc2cccc3ccccc23)C1 (stereo not drawn) [Example 2-21, (E)-N8-Hydroxy-N1-(1-isopropylpyrrolidin-3-yl)-2-((naphthalen-1-yloxy)methyl)-2-octenediamide] |  |  | 1 | 12 |
| O=C(CCCC/C=C(\COc1ccc2ccccc2c1)C(=O)NC1CCN(C2CCCCC2)C1)NO (stereo not drawn) [Example 2-25, (E)-N1-(1-Cyclohexylpyrrolidin-3-yl)-N8-hydroxy-2-((naphthalen-2-yloxy)methyl)-2-octenediamide] |  |  | 0.5 | 10 |
| O=C(CCCC/C=C(\COc1cccc2ccccc12)C(=O)NC1CCN(C2CC2)C1)NO (stereo not drawn) [Example 2-26, (E)-N1-(1-Cyclopropylpyrrolidin-3-yl)-N8-hydroxy-2-((naphthalen-1-yloxy)methyl)-2-octenediamide] |  |  | < 0.2 | 11 |
| O=C(CCCC/C=C(\COc1cccc2ccccc12)C(=O)NC1CCN(C2CC2)CC1)NO [Example 2-27, (E)-N1-(1-Cyclopropylpiperidin-4-yl)-N8-hydroxy-2-((naphthalen-1-yloxy)methyl)-2-octenediamide] |  |  | 0.32 | 16 |
| CCN1CCC(NC(=O)/C(=C/CCCCC(=O)NO)COc2cccc3ccccc23)C1 (stereo not drawn) [Example 2-29, (E)-N1-(1-Ethylpyrrolidin-3-yl)-N8-hydroxy-2-((naphthalen-1-yloxy)methyl)-2-octenediamide] |  |  | 0.9 | 10 |
| CC(C)N1CCC(NC(=O)/C(=C/CCCCC(=O)NO)COc2cccc3ccccc23)CC1 [Example 2-30, (E)-N8-Hydroxy-N1-(1-isopropylpiperidin-4-yl)-2-((naphthalen-1-yloxy)methyl)-2-octenediamide] |  |  | 0.7 | 15 |
| (E)-(3-(3-(Pyrrolidin-1-yl)propylamino)-2-((naphthalen-1-yloxy)methyl)-3-oxoprop-1-enyl)-N-hydroxybenzamide [Example 1-20] |  | 6 |  |  |
| (E)-N1-(2-(Diisopropylamino)ethyl)-N8-hydroxy-2-((naphthalen-1-yloxy)methyl)octenediamide [Example 2-4] |  |  |  | 9 |
| (E)-N1-(3-(Dimethylamino)-2,2-dimethylpropyl)-N8-hydroxy-2-((naphthalen-1-yloxy)methyl)octenediamide [Example 2-3] |  |  |  | 21 |
